{"source": "patent US20260028390A1", "about": "“ALPHA1-ANTITRYPSIN FOR USE IN THE TREATMENT OF DISEASES OR DISORDERS OF THE NERVOUS SYSTEM SUCH AS CHRONIC INFLAMMATORY DEMYELINATING POLYNEUROPATHY” (Ageronix SA, priority 2022, published 2026)", "key": {"HMC3-MHCII^Luc cells": {"system": "HMC3-MHCII^Luc cells", "assay": "IFNγ-mediated microglial activation, MHCII-driven luciferase activity", "assay_type": "cell-based, human", "details": "IFNγ 10 ng/ml; AATs 1, 10 or 25 μM day 0 to day 4", "procedure": "• A) Human microglial cells HMC3-MHCII^Luc cells were plated at day 0, activated with IFNγ at day1 until day 2 and measurement of the luciferase activity and cell viability were done at day 4. • B) Activation was measured by the activity of MHCII-driven luciferase and normalized to cell viability. Luciferase activity for all conditions is represented as fold of the untreated control. A potential effect of the highest concentration of the buffer used for drug presentation (IFNγ, AATs) was precluded. All conditions were performed in triplicates, error bars represent standard deviation (FIGS. 1A and 1B).\n(§1) • A) Human microglial HMC3-MHCII^Luc and HMC3MHCII^Luc; Ubi^AAT cells were plated at day 0, presented IFNγ at day 1 until day 2 and measurement of the luciferase activity and cell viability were done at day 4. • B) AATs were applied from day 0 to day 4 on HMC3-MHCII^Luc cells. Activation was measured by the activity of MHCII-driven luciferase and normalized to cell viability. […]\nas §1, with “HMC3-MHCII^Luc” for “HMC3-MHCII^Luc and HMC3MHCII^Luc; Ubi^AAT”, “represented as percentage of IFNγ control for all conditions.” for “normalized to cell viability.”"}, "SH-SY5Y cells": {"system": "SH-SY5Y cells", "assay": "Cell growth (cell count, morphology) of SH-SY5Y treated with 6-OHDA", "assay_type": "cell-based", "details": "6-OHDA combined with AAT 25 μM, day 4 of culture, p=0.003", "procedure": "SH-SY5Y cells, which are commonly used to model neurodegenerative disorders, were used to produce an in vitro Parkinson's model (Que R, et al., 2021, Front. Immunol. 12). Cells were cultured in DMEMF12/Glutamax supplemented with 10% FBS.\nCells were treated for 24 hours with the neurotoxin 6-hydroxydopamine (6-OHDA, Sigma Aldrich 162957) at 50, 100 μM concentrations alone or in combination with AAT 25 μM (AAT plasma derived, Sigma Aldrich batch A9024). Cells treated with AAT alone or in combination with 6-OHDA for 24 hours, were then incubated with fresh AAT for additional 24 hours. Control cells were treated with PBS.\nAt day 0 cells were plated in equally number in 24-well plate, the day after they were treated as described above, and final total cell count was performed at day 4 of culture (cell growth). Cell viability was assessed with Cell Counting Kit-8 (CCK-8; Sigma Aldrich 96992). After treatments, cells were incubated with 10 μl of CCK-8 solution for 2 hours in the incubator. Absorbance was measured at 450 nm using SpectraMax iD3 Microplate Reader. Experiments were performed in triplicate."}, "plasma TMPRSS5": {"system": "plasma TMPRSS5", "assay": "Plasma TMPRSS5, CIDP mouse model", "assay_type": "in vivo", "details": "CIDP + AAT", "procedure": "C57BL/6 mice were received at 8 weeks of age and housed under controlled conditions for the duration of the study. Three groups of 4 animals each were assigned to the following subcutaneous treatments twice daily at 7:00 AM and 7:00 PM for 2 weeks, from 20 to 35 days after the start of disease induction: • Wild type (WT) mice receiving the vehicle, 0.9% NaCl (positive control) • CIDP mice receiving the vehicle, 0.9% NaCl (negative control) • CIDP mice receiving human AAT (AAT), 50 mg/kg per injection\nOn the day preceding disease induction (Day 1), on the first (Day 20) and on the last (Day 35) treatment day, animals were subjected to blood samplings for the determination of neurofilament light chain (NfL), tumour necrosing factor alpha (TNFα) and TMPRSS5 levels, as described in FIG. 20. In addition, plasma levels of AAT were evaluated on the last treatment day."}, "[1]": {"system": "CMT1A mice B6.Cg-Tg(PMP22)C3Fbas/J", "assay": "Sciatic nerve histology, CMT mice treated with AAT 180 mg/kg/day sc", "assay_type": "in vivo, mouse", "from_the_text": "Animals were received at 6 weeks of age and housed under controlled conditions for the duration of the study. The study comprised two groups of 8 transgenic mice (CMT mice) each and one group of 8 age matched wild type (WT) C57B16 mice, serving as positive control. Animals were assigned to the following subcutaneous treatments twice daily at 7:00 AM and 7:00 PM for 2 weeks, starting from 8 weeks and up to 10 weeks of age: • Wild-type (WT, no disease) mice receiving vehicle, 0.9% NaCl (positive control) • CMT1A mice receiving vehicle, 0.9% NaCl (negative control) • CMT1A mice receiving AAT at 90 mg/kg per injection (daily dose 180 mg/kg)\nThe efficacy parameters included: • neuromuscular performance (rotarod latency to fall and grip strength test), • sciatic nerve electrophysiology (CMAP amplitude and NCV) • cytokine (IL-6 and TNFα), as well as NfL analysis • sciatic nerve histology (number of axons and axonal diameter),"}, "[2]": {"details": "CMT1A + AAT 90 mg/kg sc twice daily"}, "[3]": {"details": "CMT mice, AAT 180 mg/kg daily dose"}, "[4]": {"details": "after 2 weeks treatment free period"}}, "data": [{"substance": "alpha1-antitrypsin (AAT) protein", "values": [{"measurement": "IFNγ-mediated microglial activation (MHCII-driven luciferase activity)", "setting": "HMC3-MHCII^Luc cells", "value": "decreases"}, {"measurement": "number of cells counted compared to 6-OHDA alone", "setting": "SH-SY5Y cells", "value": "significantly increased"}, {"measurement": "plasma TMPRSS5 concentration compared to the vehicle group", "setting": "plasma TMPRSS5", "value": "No statistically significant differences"}, {"measurement": "Sciatic nerve histology, Axonal diameter (Mean ± SD)", "setting": "[1]; [2]", "value": "3.84 ± 0.25", "unit": "μm"}, {"measurement": "Sciatic nerve histology, Axons/100 μm2 (Mean ± SD)", "setting": "[1]; [2]", "value": "26.30 ± 2.00"}, {"measurement": "Sciatic nerve histology, g-ratio (Mean ± SD)", "setting": "[1]; [2]", "value": "0.62 ± 0.16"}, {"measurement": "axonal diameter relative to untreated CMT animals", "setting": "[1]; [3]", "value": "increase"}, {"measurement": "g-ratio relative to untreated CMT animals", "setting": "[1]; [3]", "value": "decrease"}, {"measurement": "number of axons in the treated animals", "setting": "[1]; [4]", "value": "significantly larger"}, {"measurement": "size of the myelin sheath in the treated animals", "setting": "[1]; [4]", "value": "significantly larger"}]}]}
